One assay has as its target T1, human NHE3 (Homo sapiens, UniProt P48764).
T1 sequence (P48764 26-834): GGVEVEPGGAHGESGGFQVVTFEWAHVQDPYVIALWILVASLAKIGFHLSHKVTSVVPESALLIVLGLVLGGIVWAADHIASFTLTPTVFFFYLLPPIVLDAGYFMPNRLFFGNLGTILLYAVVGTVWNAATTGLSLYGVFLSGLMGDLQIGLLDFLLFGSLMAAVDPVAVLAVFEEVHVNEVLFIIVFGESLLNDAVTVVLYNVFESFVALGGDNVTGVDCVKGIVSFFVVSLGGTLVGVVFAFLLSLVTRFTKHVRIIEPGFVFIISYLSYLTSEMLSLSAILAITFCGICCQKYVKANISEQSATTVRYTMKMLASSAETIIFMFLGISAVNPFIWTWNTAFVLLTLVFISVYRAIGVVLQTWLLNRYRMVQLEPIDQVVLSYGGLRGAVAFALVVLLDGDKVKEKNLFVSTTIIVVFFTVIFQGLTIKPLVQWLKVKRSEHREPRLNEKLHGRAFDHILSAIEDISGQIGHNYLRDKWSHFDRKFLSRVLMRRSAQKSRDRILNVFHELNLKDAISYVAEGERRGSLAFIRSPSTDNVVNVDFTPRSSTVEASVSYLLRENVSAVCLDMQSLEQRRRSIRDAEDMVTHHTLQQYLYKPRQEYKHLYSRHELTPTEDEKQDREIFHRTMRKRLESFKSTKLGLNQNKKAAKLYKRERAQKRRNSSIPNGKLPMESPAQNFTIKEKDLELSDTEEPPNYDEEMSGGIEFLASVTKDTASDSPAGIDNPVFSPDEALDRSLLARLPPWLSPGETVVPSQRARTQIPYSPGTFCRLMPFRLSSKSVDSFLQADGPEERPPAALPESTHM
Briefly: Cell-based assay of NHE-3 activity (pre-incubation inhibition), human. The note with it: for IC50: PS120 fibroblasts stably expressing human NHE3, 10 min pre-incubation with 0-30 μM test compound, read-out: pIC50 (human Preincubation assay) (converted); for % inhibition (human Preincubation assay): PS120 fibroblasts stably expressing human NHE3, pre-incubation with test compound. How it is done:
Rat and human NHE-3-mediated Na^+-dependent H^+ antiport was measured using a modification of the pH sensitive dye method originally reported by Paradiso (Proc. Natl. Acad. Sci. USA. (1984) 81(23): 7436-7440, which is hereby incorporated by reference in its entirety). PS120 fibroblasts stably expressing human NHE3 were obtained from Mark Donowitz (Baltimore, Md.). Opossum kidney (OK) cells were obtained from the ATCC and propagated per their instructions. The rat NHE-3 gene (GenBank M85300) was introduced into OK cells via electroporation, and cells were seeded into 96 well plates and grown overnight. Medium was aspirated from the wells then incubated for 30 min at 37° C. with NH4Cl-HEPES buffer (20 mM NH4Cl, 80 mM NaCl, 50 mM HEPES, 5 mM KCl, 2 mM CaCl2, 1 mM MgCl2, pH 7.4) containing 5 μM BCECF-AM. Cells were washed once with Ammonium free, Nat-free HEPES (100 mM choline, 50 mM HEPES, 10 mM glucose, 5 mM KCl, 2 mM CaCl2, 1 mM MgCl2, pH 7.4) and incubated in the same buffer for 10 minutes at room temperature to lower intracellular pH with 0-30 μM test compound. […] Changes in intracellular pH were monitored using a FLIPR Tetra® (Molecular Devices, Sunnyvale, Calif.) by excitation at λex 439 to 505 nm, and measuring BCECF fluorescence at λem 538 nm. The initial rate of the fluorescence ratio change was used as a measure of NHE-mediated Na^+/H^+ activity, and reported as the change in fluorescence ratio per minute. Initial rates were plotted as the average 2 or more replicates, and pIC50 values were estimated using GraphPad Prism.

Assay [1] has as its system absorption of sodium from the intestinal lumen. Briefly: Inhibition of intestinal sodium absorption: rat urinary sodium and fecal form 16 h post-dose. The assay is classed as in vivo, Sprague-Dawley rats. The settings on record: for response vs control in vivo at 10 mg/kg / FFS (fecal form score): oral gavage 10 mg/kg; for FFS (fecal form score): 16 h post-dose, scale 1-5, group average. How it is done:
Urinary sodium concentration and fecal form were measured to assess the ability of selected example compounds to inhibit the absorption of sodium from the intestinal lumen. Eight-week old Sprague-Dawley rats were purchased from Charles River Laboratories (Hollister, Calif.), were housed 2 per cage, and acclimated for at least 3 days before study initiation. Animals were fed Harlan Teklad Global 2018 rodent chow (Indianapolis, Ind.) and water ad libitum throughout the study and maintained in a standard light/dark cycle of 6 AM to 6 PM. On the day of the study, between 4 PM and 5 PM, a group of rats (n=6) were dosed via oral gavage with test compound or vehicle (water) at a volume of 10 mL/kg. After dose administration animals were placed in individual metabolic cages where they were also fed the same chow in meal form and watered ad libitum. At 16 h post-dose, the urine samples were collected and fecal form was assessed by two independent observations. Fecal forms were scored according to a common scale associated with increasing fecal water to the wettest observation in the cage's collection funnel (1, normal pellet; 2, pellet adhering to sides of collection funnel due to moisture; 3, loss of normal pellet shape; 4, complete loss of shape with a blotting pattern; 5, liquid fecal streams evident). A rat's fecal form score (FFS) was determined by averaging both observational scores for all rats within a group (n=6). The vehicle group average was 1. For urine samples, the volumes were determined gravimetrically and centrifuged at 3,600×g. The supernatants were diluted 100-fold in deionized Milli-Q water then filtered through a 0.2 μm GHP Pall AcroPrep filter plate (Pall Life Sciences, Ann Arbor, Mich.) prior to analysis by ion chromatography. Ten microliters of each filtered extract was injected onto a Dionex ICS-3000 ion chromatograph system (Dionex, Sunnyvale, Calif.). Cations were separated by an isocratic method using 25 mM methanesulfonic acid as the eluent on an IonPac CS12A 2 mm i.d.×250 mm, 8 μm particle size cation exchange column (Dionex). Sodium was quantified using standards prepared from a cation standard mix containing Li^+, Na^+, NH4^+, K^+, Mg^2+, and Ca^2+ (Dionex). The mean mass of sodium urinated for every group in the 16 h period was determined with the vehicle group usually urinating approximately 21 mg sodium. The urine Na (uNa) for rats in the test groups were expressed as a percentage of the vehicle mean and the means were compared to that of the vehicle group by utilizing a one-way analysis of variance coupled with a Dunnett's post hoc test.

Setting [2] is: urine 16 h post-dose, read-out: uNa Result, uNa (% of vehicle).

We go through twelve compounds from patent US10376481B2, “Compounds and methods for inhibiting NHE-mediated antiport in the treatment of disorders associated with fluid retention or salt overload and gastrointestinal tract disorders” (ARDELYX, INC, priority 2012, dated 2019).

In the case of `CN(C)[C@H]1Cc2c(F)cc(Cl)cc2[C@@H]1Oc1ccc(S(=O)(=O)NCCOCCOCCNC(=O)NCCCCNC(=O)NCCOCCOCCNS(=O)(=O)c2ccc(O[C@H]3c4cc(Cl)cc(F)c4C[C@@H]3N(C)C)cc2)cc1` [Example 25], at human NHE3, the IC50 is less than 100 nM and the “% inhibition (human Preincubation assay)” value is given as “C (>70%)”. Also, the response vs control in vivo at 10 mg/kg in assay [1] (setting [2]) is greater than 75%.

For `CN(C)[C@H]1Cc2ccc(F)cc2[C@@H]1Oc1ccc(S(=O)(=O)NCCOCCOCCNC(=O)NCCCCNC(=O)NCCOCCOCCNS(=O)(=O)c2ccc(O[C@H]3c4cc(F)ccc4C[C@@H]3N(C)C)cc2)cc1` [Example 22], on human NHE3, the IC50 is less than 100 nM and the “% inhibition (human Preincubation assay)” value was “C (>70%)”. Moreover, the response vs control in vivo at 10 mg/kg in assay [1] (setting [2]) was greater than 75%.

As for `CN(C)[C@H]1Cc2c(Cl)cc(Cl)cc2[C@@H]1Oc1ccc(S(=O)(=O)NCCOCCOCCNC(=O)C(C)(C)C(=O)NCCOCCOCCNS(=O)(=O)c2ccc(O[C@H]3c4cc(Cl)cc(Cl)c4C[C@@H]3N(C)C)cc2)cc1` [Example 36], on human NHE3, the IC50 is 100 to 1000 nM and the “% inhibition (human Preincubation assay)” value is listed as “C (>70%)”. In addition, in assay [1], the “FFS (fecal form score)” value was determined as 2. For the same compound, the response vs control in vivo at 10 mg/kg in assay [1] (setting [2]) fell in the range of 35 to 75%.

Regarding `CN(C)[C@H]1Cc2ccccc2[C@@H]1Oc1ccc(S(=O)(=O)NCCOCCOCCNC(=O)NCCCCNC(=O)NCCOCCOCCNS(=O)(=O)c2ccc(O[C@H]3c4ccccc4C[C@@H]3N(C)C)cc2)cc1` [Example 20], on human NHE3, the IC50 was less than 100 nM and the “% inhibition (human Preincubation assay)” value is given as “C (>70%)”. The response vs control in vivo at 10 mg/kg in assay [1] (setting [2]) lay in the range of 35 to 75%.

For the compound `CN(C)[C@H]1Cc2c(Cl)cc(Cl)cc2[C@@H]1Oc1ccc(S(=O)(=O)NCCOCCOCCNC(=O)[C@H](O)[C@@H](O)C(=O)NCCOCCOCCNS(=O)(=O)c2ccc(O[C@H]3c4cc(Cl)cc(Cl)c4C[C@@H]3N(C)C)cc2)cc1` [Example 5, (2R,3R)—N1,N4-bis(2-(2-(2-(4-((1S,2S)-4,6-dichloro-2-(dimethylamino)-2,3-dihydro-1H-inden-1-yloxy)phenylsulfonamido)ethoxy)ethoxy)ethyl)-2,3-dihydroxysuccinamide], on human NHE3, the IC50 was less than 100 nM and the “% inhibition (human Preincubation assay)” value is reported as “C (>70%)”. For the same compound, the “FFS (fecal form score)” value in assay [1] was found to be 1. Moreover, in assay [1] (setting [2]), the response vs control in vivo at 10 mg/kg is less than 35%.

As for `CN(C)[C@H]1Cc2ccc(Cl)cc2[C@@H]1Oc1ccc(S(=O)(=O)NCCOCCOCCNC(=O)NCCCCNC(=O)NCCOCCOCCNS(=O)(=O)c2ccc(O[C@H]3c4cc(Cl)ccc4C[C@@H]3N(C)C)cc2)cc1` [Example 21], at human NHE3, the IC50 was less than 100 nM and the “% inhibition (human Preincubation assay)” value is given as “C (>70%)”. In addition, the response vs control in vivo at 10 mg/kg in assay [1] (setting [2]) is greater than 75%.

On to `CN(C)[C@H]1Cc2c(Cl)cc(Cl)cc2[C@@H]1Oc1ccc(S(=O)(=O)NCCOCCOCCNC(=O)CCC(C)(N)CCC(=O)NCCOCCOCCNS(=O)(=O)c2ccc(O[C@H]3c4cc(Cl)cc(Cl)c4C[C@@H]3N(C)C)cc2)cc1` [Example 11, 4-amino-N1,N7-bis(2-(2-(2-(4-((1S,2S)-4,6-dichloro-2-(dimethylamino)-2,3-dihydro-1H-inden-1-yloxy)phenylsulfonamido)ethoxy)ethoxy)ethyl)-4-methylheptanediamide], for which, on human NHE3, the IC50 is less than 100 nM and the “% inhibition (human Preincubation assay)” value is listed as “C (>70%)”. Moreover, the response vs control in vivo at 10 mg/kg in assay [1] (setting [2]) was in the range of 35 to 75%.

Turning to `CN(C)[C@H]1Cc2c(Cl)cc(Cl)cc2[C@@H]1Oc1ccc(S(=O)(=O)NCCOCCOCCNC(=O)NCCCCNC(=O)NCCOCCOCCNS(=O)(=O)c2ccc(O[C@H]3c4cc(Cl)cc(Cl)c4C[C@@H]3N(C)C)cc2)cc1` [Example 1, (S,S)—N,N′-(10,17-dioxo-3,6,21,24-tetraoxa-9,11,16,18-tetraazahexacosane-1,26-diyl)bis(4-((1S,2S)-4,6-dichloro-2-(dimethylamino)-2,3-dihydro-1H-inden-1-yloxy)benzenesulfonamide)], at human NHE3, the IC50 was less than 100 nM and the “% inhibition (human Preincubation assay)” value is on record as “C (>70%)”. In addition, in assay [1], the “FFS (fecal form score)” value came out at 1. In assay [1] (setting [2]), the response vs control in vivo at 10 mg/kg is less than 35%.

Consider `O=C(NCCCCNC(=O)NCCOCCOCCNS(=O)(=O)c1ccc(O[C@H]2c3cc(Cl)cc(Cl)c3C[C@@H]2N2CCCCC2)cc1)NCCOCCOCCNS(=O)(=O)c1ccc(O[C@H]2c3cc(Cl)cc(Cl)c3C[C@@H]2N2CCCCC2)cc1` [Example 15], for which, at human NHE3, the IC50 was less than 100 nM and the “% inhibition (human Preincubation assay)” value is given as “B (40-70%)”. Moreover, in assay [1] (setting [2]), the response vs control in vivo at 10 mg/kg was in the range of 35 to 75%.

For `O=C(NCCCCNC(=O)NCCOCCOCCNS(=O)(=O)c1ccc(O[C@H]2c3cc(Cl)cc(F)c3C[C@@H]2N2CCCCC2)cc1)NCCOCCOCCNS(=O)(=O)c1ccc(O[C@H]2c3cc(Cl)cc(F)c3C[C@@H]2N2CCCCC2)cc1` [Example 24], at human NHE3, the IC50 is less than 100 nM and the “% inhibition (human Preincubation assay)” value is “C (>70%)”. Moreover, the response vs control in vivo at 10 mg/kg in assay [1] (setting [2]) was greater than 75%.

Regarding `O=C(NCCCCNC(=O)NCCOCCOCCNS(=O)(=O)c1ccc(O[C@H]2c3cc(Cl)cc(Cl)c3C[C@@H]2N2CC[C@@H](O)C2)cc1)NCCOCCOCCNS(=O)(=O)c1ccc(O[C@H]2c3cc(Cl)cc(Cl)c3C[C@@H]2N2CC[C@@H](O)C2)cc1` [Example 30], at human NHE3, the IC50 is less than 100 nM and the “% inhibition (human Preincubation assay)” value was “C (>70%)”. The response vs control in vivo at 3 mg/kg in assay [1] (oral gavage 3 mg/kg, urine 16 h post-dose, read-out: uNa Result, uNa (% of vehicle)) lay within 35 to 75%.

On to `O=C(NCCCCNC(=O)NCCOCCOCCNS(=O)(=O)c1ccc(O[C@H]2c3cc(Cl)cc(F)c3C[C@@H]2N2CC[C@@H](O)C2)cc1)NCCOCCOCCNS(=O)(=O)c1ccc(O[C@H]2c3cc(Cl)cc(F)c3C[C@@H]2N2CC[C@@H](O)C2)cc1` [Example 4, (S,S,R)—N,N′-(10,17-dioxo-3,6,21,24-tetraoxa-9,11,16,18-tetraazahexacosane-1,26-diyl)bis(4-((1S,2S)-6-chloro-4-fluoro-2-((R)-3-hydroxypyrrolidin-1-yl)-2,3-dihydro-1H-inden-1-yloxy)benzenesulfonamide)], for which, on human NHE3, the IC50 is less than 100 nM and the “% inhibition (human Preincubation assay)” value is given as “C (>70%)”. Further, in assay [1], the “FFS (fecal form score)” value turned out to be 1. In addition, the response vs control in vivo at 10 mg/kg in assay [1] (setting [2]) is greater than 75%.
